Structures can show the parent of a compound that is named as a salt. Where two headings read alike, the source gives them in different places.
Tests used:
dopamine-D2 receptors = target: T1, dopamine-D2 receptors (Rattus norvegicus, UniProt P61169); test: In vitro affinity for dopamine-D2 receptors ([3H]-spiroperidol receptor binding assay, Creese et al.)
T1 construct: labels dopamine receptors in rat pituitary and brain; from tissue; host or cells: rat brain / pituitary membranes (from the title of the cited method)
Description: In Vitro Affinity for Dopamine-D2 Receptors
Affinity of the compounds for dopamine-D2 receptors was determined using the receptor binding assay described by I. Creese, R. Schneider and S. H. Snyder: “[^3H]-Spiroperidol labels dopamine receptors in rat pituitary and brain”, Eur. J. Pharmacol., 46, 377-381, 1977.
(§1) The affinity of the compounds of the invention for dopamine-D2 receptors and serotonine reuptake sites was determined as described above. From the binding affinity measured for a given compound of formula (1), one can estimate a theoretical lowest effective dose. At a concentration of the compound equal to twice the measured Ki-value, 100% of the receptors likely will be occupied by the compound. Converting that concentration to mg of compound per kg of patient yields a theoretical lowest effective dose, assuming ideal bioavailability. Pharmacokinetic, pharmacodynamic, and other considerations may alter the dose actually administered to a higher or lower value. The dosage expediently administered is 0.001-1000 mg/kg, preferably 0.1-100 mg/kg of patient's bodyweight.

serotonin reuptake sites = target: T2, serotonin reuptake sites (Rattus norvegicus, UniProt P31652); test: In vitro affinity for serotonin reuptake sites ([3H]-paroxetine binding assay, Habert et al.)
T2 construct: from tissue; host or cells: rat cortical membranes (from the title of the cited method)
Description: In Vitro Affinity for Serotonin Reuptake Sites
Affinity of the compounds for serotonin reuptake sites was determined using the receptor binding assay described by E. Habert et al.,: “Characterisation of [^3H]-paroxetine binding to rat cortical membranes”, Eur. J. Pharmacol., 118, 107-114, 1985.
as §1

[1] = target: T3, Human dopamine D2,L receptors (Homo sapiens, UniProt P14416); test: Inhibition of forskolin-induced [3H]-cAMP accumulation in CHO-K1 cells; assay type: cell-based; conditions: Cloned human dopamine D2,L receptors, full agonist ε=1, full antagonist ε=0
T3 construct: host or cells: CHO-K1
Description: Inhibition of Forskolin-Induced [^3H]-cAMP Accumulation
The in vitro functional activity at dopamine-D2 receptors, including the intrinsic activity (ε) of the compounds of the invention was measured by their ability to inhibit forskolin-induced [^3H]-cAMP accumulation.
Human dopamine D2,L receptors were Cloned in fibroblast cell line CHO-K1 cells and obtained from Dr. Grandy, Vollum Institute, Portland, Oreg., USA. CHO cells were grown in a Dulbecco's modified Eagle's medium (DMEM) culture medium, supplemented with 10% heat-inactivated fetal calf serum, 2 mM glutamine, 1 mM pyruvate, 5000 units/ml penicillin, 5000 μg/ml streptomycin and 200 μg/ml G-418 at 37° C. in 93% air/7% CO2. For incubation with test compounds, confluent cultures grown in 24 wells plates were used. Each condition or substance was routinely tested in quadruplicate. Cells were loaded with 1 μci [^3H]-adenine in 0.5 ml medium/well. After 2 hours, cultures were washed with 0.5 ml PBS containing 1 mM of the phospho-diesterase inhibitor isobutylmethylxanthine (IBMX) and incubated for 20 min with 0.5 ml PBS containing 1 mM IBMX and forskolin with or without test compound. After aspiration the reaction was stopped with 1 ml trichloroacetic acid 5% (w/v). […] 0.8 ml Extract was passed over Dowex (50WX-4 200-400 mesh) and aluminumoxide columns, eluted with water and 0.1M imidazole (pH=7.5). Eluates were mixed with 7 ml Insta-gel and radioactivity was counted with a liquid scintillation counter. The conversion of [^3H]-ATP into [^3H]-cAMP was expressed as the ratio in percentage radioactivity in the cAMP fraction as compared to combined radioactivity in both cAMP and ATP fractions, and basal activity was subtracted to correct for spontaneous activity.
Test compounds were obtained as 10 mM stock solutions in 100% DMSO, and diluted in PBS/IBMX to final concentrations. Typically, compounds were used in concentrations that ranged from 10^−10M to 10^−5M. From quadruplicate data counts, the mean was taken as an estimate for drug-induced, receptor-mediated effects at specified second messenger accumulation, expressed as percentage of control values (forskolin-stimulated cAMP accumulation, subtracted by basal activity). By using the non-linear curve-fitting program INPLOT or the Excel-add-in XL-Fit, mean values were plotted against drug concentration (in molar) and a sigmoid curve (four-parameter logistic curve) was constructed. The maximal forskolin-induced stimulated conversion is taken as maximum value and the maximal inhibition (usually at drug concentrations 10^−6 M or 10^−5 M) as minimum and these values were fixed during the fitting process. Thus, concentrations of the compound, causing 50% of the maximally obtained inhibition of forskolin-induced cAMP accumulation (EC50), are averaged over several experiments and presented as mean pEC50±SEM. Antagonist potency is assessed by co-incubating cells with a fixed agonist concentration and specified antagonist concentrations. Curve fitting procedures are identical to those used for estimating EC50 values. Thus IC50 values, i.e. the concentration that is able to achieve 50% of maximal antagonism that can be achieved by this compound. IC50 values are corrected using a Cheng-Prussoff equation, correcting it for agonist concentration and EC50 values that is obtained in the same experiment. Thus, Kb=IC50/(1+[agonist]/EC50, agonist).The corresponding pA2 value is −log (Kb). Concentration-response curve fitting allows estimation of pEC50 values and of maximal achievable effect (intrinsic activity or efficacy (ε). A full receptor agonist has ε=1, a full receptor antagonist has ε=0, and a partial receptor agonist has an intermediate intrinsic activity.

[2] = receptor binding, read-out: Dopamine-D2 binding pKi (converted)
[3] = receptor binding, read-out: 5-HT reuptake binding pKi (converted)

T2 sequence (P31652 whole entry): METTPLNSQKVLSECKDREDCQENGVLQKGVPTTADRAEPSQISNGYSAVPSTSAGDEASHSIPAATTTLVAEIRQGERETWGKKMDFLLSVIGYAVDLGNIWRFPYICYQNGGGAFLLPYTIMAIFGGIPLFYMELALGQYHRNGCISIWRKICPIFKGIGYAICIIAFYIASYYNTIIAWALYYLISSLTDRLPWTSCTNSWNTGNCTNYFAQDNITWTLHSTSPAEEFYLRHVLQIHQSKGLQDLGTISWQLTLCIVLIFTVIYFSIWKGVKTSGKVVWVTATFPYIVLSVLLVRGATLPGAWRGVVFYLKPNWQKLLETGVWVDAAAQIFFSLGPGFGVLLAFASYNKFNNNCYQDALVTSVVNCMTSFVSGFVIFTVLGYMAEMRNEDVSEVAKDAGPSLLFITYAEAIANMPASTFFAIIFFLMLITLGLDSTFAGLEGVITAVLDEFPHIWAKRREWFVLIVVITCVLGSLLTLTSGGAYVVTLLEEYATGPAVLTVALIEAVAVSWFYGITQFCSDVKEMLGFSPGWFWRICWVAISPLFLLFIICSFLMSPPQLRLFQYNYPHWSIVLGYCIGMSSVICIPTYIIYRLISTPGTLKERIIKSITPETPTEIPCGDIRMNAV
T3 sequence (P14416 whole entry): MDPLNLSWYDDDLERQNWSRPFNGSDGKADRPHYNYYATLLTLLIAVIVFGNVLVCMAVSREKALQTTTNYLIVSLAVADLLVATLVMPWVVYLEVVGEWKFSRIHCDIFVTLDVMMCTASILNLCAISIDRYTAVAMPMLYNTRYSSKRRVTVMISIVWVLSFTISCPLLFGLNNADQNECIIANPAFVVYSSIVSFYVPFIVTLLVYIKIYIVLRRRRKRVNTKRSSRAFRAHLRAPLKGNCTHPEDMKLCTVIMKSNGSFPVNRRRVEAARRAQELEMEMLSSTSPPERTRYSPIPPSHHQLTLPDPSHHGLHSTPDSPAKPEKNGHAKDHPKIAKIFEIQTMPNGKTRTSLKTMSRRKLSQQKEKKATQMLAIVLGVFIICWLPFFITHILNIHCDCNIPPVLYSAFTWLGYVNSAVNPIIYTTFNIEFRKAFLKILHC
T1 sequence (P61169 whole entry): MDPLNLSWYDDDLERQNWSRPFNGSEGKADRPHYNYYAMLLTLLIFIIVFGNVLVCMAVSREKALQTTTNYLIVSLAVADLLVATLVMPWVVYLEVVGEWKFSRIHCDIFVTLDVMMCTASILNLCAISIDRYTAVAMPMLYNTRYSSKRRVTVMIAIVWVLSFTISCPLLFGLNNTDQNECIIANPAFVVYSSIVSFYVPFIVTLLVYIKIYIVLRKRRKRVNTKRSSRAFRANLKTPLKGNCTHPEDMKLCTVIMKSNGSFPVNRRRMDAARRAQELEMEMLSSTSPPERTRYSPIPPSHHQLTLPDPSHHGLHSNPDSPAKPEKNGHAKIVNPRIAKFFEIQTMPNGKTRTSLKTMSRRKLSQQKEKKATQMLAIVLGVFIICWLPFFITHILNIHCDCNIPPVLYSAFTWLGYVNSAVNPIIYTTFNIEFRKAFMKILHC

Row | SMILES | melting point | Ki (dopamine-D2 receptors; [2]) [nM] | Ki (serotonin reuptake sites; [3]) [nM] | Dopamine-D2 cAMP accum ∈ (intrinsic activity) [1] | Ki (dopamine-D2 receptors) [nM] | Ki (serotonin reuptake sites) [nM]
1 | C[C@@H]1CN(c2cccc3[nH]c(=O)oc23)C[C@H](C)N1CCCc1c[nH]c2ccc(F)cc12 (as salt: HCl) [compound 1] | 270 to 275 °C |  |  |  |  | 
2 | CC(CCc1c[nH]c2ccc(F)cc12)N1CCN(c2cccc3c2oc(=O)n3C)CC1 (centres unmarked) (as salt: HCl) [compound 2] | 207 to 209 °C |  |  |  |  | 
3 | CC(CCN1CCN(c2cccc3c2oc(=O)n3C)CC1)c1c[nH]c2ccc(F)cc12 (centres unmarked) (as salt: HCl) [compound 3] | 100 to 140 °C (dec.) |  |  |  |  | 
4 | Cn1cc(CCCN2CCN(c3cccc4c3oc(=O)n4C)CC2)c2cc(F)ccc21 (as salt: HCl) [compound 8] | > 225 °C (dec.) |  |  |  |  | 
5 | Cn1c(=O)oc2c(N3CCN(CCCCc4c[nH]c5ccc(F)cc45)CC3)cccc21 (as salt: HCl) [compound 11] | 254 to 256 °C |  |  |  |  | 
6 | Cn1c(=O)oc2c(N3CCN(CCCCc4c[nH]c5ccc(C#N)cc45)CC3)cccc21 (as salt: HCl) [compound 12] | 213 to 215 °C |  |  |  |  | 
7 | Cn1c(=O)oc2c(N3CCN(CCCc4c[nH]c5ccc(F)cc45)CC3)cc(F)cc21 (as salt: HCl) [compound 15] | 246 to 249 °C |  |  |  |  | 
8 | CCn1c(=O)oc2c(N3CCN(CCCc4c[nH]c5ccc(F)cc45)CC3)cccc21 (as salt: HCl) [compound 16] | 100 to 140 °C |  |  |  |  | 
9 | C[C@@H]1CN(c2cccc3[nH]c(=O)oc23)C[C@H](C)N1CCCc1c[nH]c2ccc(F)cc12 [compound 1] |  | 20 | 5.01 | 0.13 |  | 
10 | CC(CCc1c[nH]c2ccc(F)cc12)N1CCN(c2cccc3c2oc(=O)n3C)CC1 (centres unmarked) [compound 2] |  | 158 | 1 |  |  | 
11 | CC(CCN1CCN(c2cccc3c2oc(=O)n3C)CC1)c1c[nH]c2ccc(F)cc12 (centres unmarked) [compound 3] |  | 100 | 0.794 | 0.43 |  | 
12 | CC(Cc1c[nH]c2ccc(F)cc12)CN1CCN(c2cccc3c2oc(=O)n3C)CC1 (centres unmarked) [compound 4] | 166 to 168 °C | 7.94 | 2.51 | 0.22 |  | 
13 | Cc1cc(Cl)cc2c(CCCN3CCN(c4cccc5c4oc(=O)n5C)CC3)c[nH]c12 [compound 6] | 159 to 162 °C |  |  | 0.52 |  | 
14 | Cn1cc(CCCN2CCN(c3cccc4c3oc(=O)n4C)CC2)c2cc(Cl)ccc21 [compound 7] | 140 to 142 °C | 200 | 2.51 | 0.15 |  | 
15 | Cn1cc(CCCN2CCN(c3cccc4c3oc(=O)n4C)CC2)c2cc(F)ccc21 [compound 8] |  | 31.6 | > 10 | 0.44 |  | 
16 | Cn1c(=O)oc2c(N3CCN(CCCc4c[nH]c5ccc(F)cc45)CC3)cccc21 [compound 9] | 135 to 137 °C | 79.4 | 7.94 | 0.12 |  | 
17 | Cn1c(=O)oc2c(N3CCN(CCCc4c[nH]c5ccc(C#N)cc45)CC3)cccc21 [compound 10] | 151 to 152 °C | 126 | 3.98 | 0.66 |  | 
18 | Cn1c(=O)oc2c(N3CCN(CCCCc4c[nH]c5ccc(F)cc45)CC3)cccc21 [compound 11] |  | 25.1 | > 10 | 0.72 |  | 
19 | Cn1c(=O)oc2c(N3CCN(CCCCc4c[nH]c5ccc(C#N)cc45)CC3)cccc21 [compound 12] |  | 7.94 | < 1 | 0.75 |  | 
20 | Cn1c(=O)oc2c(N3CCN(CCc4c[nH]c5ccc(F)cc45)CC3)cccc21 [compound 13] | 198 to 200 °C |  |  | 0.22 | 3.98 | 3.16
21 | Cn1c(=O)oc2c(N3CCN(CCCc4c[nH]c5ccc(F)cc45)CC3)cc(F)cc21 [compound 15] |  | 79.4 | 0.316 |  |  | 
22 | CCn1c(=O)oc2c(N3CCN(CCCc4c[nH]c5ccc(F)cc45)CC3)cccc21 [compound 16] |  | 39.8 | < 1 | 0.15 |  | 
23 | Fc1ccc2[nH]cc(CCCN3CCN(c4cccc5[nH]c(=S)oc45)CC3)c2c1 [compound 17] | 238 to 240 °C (dec.) | 15.8 | 5.01 | 0.32 |  | 

Reference: patent publication US20070142397A2, “PHENYPIPERAZINE DERIVATIVES WITH A COMBINATION OF PARTIAL DOPAMINE-D2 RECEPTOR AGONISM AND SEROTONIN REUPTAKE INHIBITION” (SOLVAY PHARMECEUTICALS B.V., priority 2004, published 2007)
